For 8 cell lines, relative viability results are on record in the supplement of paper PMC10307832.

What all share (experiment): relative viability (nuclei count vs DMSO), 5 days (fraction); higher = more cells survive
Compound in experiment [1]: O=C(O)c1ccc2c(c1)nc(Nc1cccc(Cl)c1)c1ccncc12 [Silmitasertib] + CC(C)C[C@H](NC(=O)[C@H](Cc1ccccc1)NC(=O)c1cnccn1)B(O)O [Bortezomib] (partner 0.002 µM)
The procedure, abridged:
(§1)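 Lung cancer cell lines, seeded in 1536-well plates, were treated the following day by pin tool with a single drug or with five library-drug doses (not always all listed) in √10 steps on top of a fixed anchor-drug dose. Cells were fixed and nuclei stained in one step after 5 days, and nuclei were counted. Relative viability is the nuclei count for treated wells divided by that for vehicle wells, reported as medians of duplicate plates.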

Compound in experiment [2]: O=C(O)c1ccc2c(c1)nc(Nc1cccc(Cl)c1)c1ccncc12 [Silmitasertib] + C[C@]1(O)C[C@@H](c2nc(-c3ccc4ccc(-c5ccccc5)nc4c3)c3c(N)nccn32)C1 [Linsitinib] (partner 1 µM)
Put shortly: as §1

Compound in experiment [3]: O=C(O)c1ccc2c(c1)nc(Nc1cccc(Cl)c1)c1ccncc12 [Silmitasertib] + N=C(N)NC(=N)NCCc1ccccc1 [Phenformin] (partner 250 µM)
The procedure, abridged:
as §1

Compound in the experiment “Silmitasertib + AZD7762”: O=C(O)c1ccc2c(c1)nc(Nc1cccc(Cl)c1)c1ccncc12 [Silmitasertib] + NC(=O)Nc1cc(-c2cccc(F)c2)sc1C(=O)N[C@H]1CCCNC1 [AZD7762] (partner 0.2 µM)
Put shortly:
as §1

Compound in experiment [4]: O=C(O)c1ccc2c(c1)nc(Nc1cccc(Cl)c1)c1ccncc12 [Silmitasertib] + Nc1ncn([C@H]2C[C@H](O)[C@@H](CO)O2)c(=O)n1 [Decitabine] (partner 2 µM)
The procedure, abridged:
as §1

Turning to NCI-H1792, the relative viability in experiment [1] (first compound 0.04 µM) was determined as 0.943; in experiment [1] (first compound 0.4 µM) it was 0.68; in experiment [1] (first compound 1.265 µM), 0.53; in experiment [1] (first compound 4 µM), 0.864; in experiment [2] (first compound 0.04 µM) it was 0.531; in experiment [2] (first compound 0.4 µM) it was 0.439. The relative viability in experiment [2] (first compound 1.265 µM) is 0.48; in experiment [2] (first compound 4 µM), 0.539; in experiment [3] (first compound 0.04 µM), 0.29; in experiment [3] (first compound 0.4 µM), 0.24; in experiment [3] (first compound 1.265 µM), 0.327; in experiment [3] (first compound 4 µM) it was 0.103. The relative viability with Silmitasertib + AZD7762 (first compound 0.04 µM) came to 0.737; in the experiment with Silmitasertib + AZD7762 (first compound 0.4 µM), 0.56; with Silmitasertib + AZD7762 (first compound 1.265 µM), 0.59; with Silmitasertib + AZD7762 (first compound 4 µM), 0.444; in experiment [4] (first compound 0.04 µM) it was 0.6; in experiment [4] (first compound 0.4 µM), 0.492. In addition, the relative viability in experiment [4] (first compound 1.265 µM) turned out to be 0.529; in experiment [4] (first compound 4 µM), 0.515.

Take NCI-H1915: the relative viability in experiment [1] (first compound 0.04 µM) turned out to be 1.01; in experiment [1] (first compound 1.265 µM), 1.02; in experiment [1] (first compound 4 µM), 0.424; in experiment [2] (first compound 0.04 µM), 1.13; in experiment [2] (first compound 1.265 µM), 1.18; in experiment [2] (first compound 4 µM), 0.956. In addition, the relative viability in experiment [3] (first compound 0.04 µM) worked out at 0.362; in experiment [3] (first compound 1.265 µM) it was 0.37; in experiment [3] (first compound 4 µM), 0.249; with Silmitasertib + AZD7762 (first compound 0.04 µM), 0.752; in the experiment with Silmitasertib + AZD7762 (first compound 1.265 µM), 0.77; with Silmitasertib + AZD7762 (first compound 4 µM) it was 0.535. Moreover, the relative viability was determined as 0.266 in experiment [4] (first compound 0.04 µM), 0.259 in experiment [4] (first compound 1.265 µM) and 0.253 in experiment [4] (first compound 4 µM).

Take NCI-H1975: the relative viability turned out to be 0.349 in experiment [1] (first compound 0.04 µM); 0.283 in experiment [1] (first compound 0.4 µM); 0.423 in experiment [1] (first compound 1.265 µM); 0.331 in experiment [1] (first compound 4 µM); 1.07 in experiment [2] (first compound 0.04 µM); 0.842 in experiment [2] (first compound 0.4 µM). Also, the relative viability in experiment [2] (first compound 1.265 µM) stood at 0.878; in experiment [2] (first compound 4 µM), 0.686; in experiment [3] (first compound 0.04 µM) it was 0.443; in experiment [3] (first compound 1.265 µM), 0.382; in experiment [3] (first compound 4 µM), 0.394; with Silmitasertib + AZD7762 (first compound 0.04 µM) it was 0.775. For the same cell line, the relative viability is 0.647 with Silmitasertib + AZD7762 (first compound 1.265 µM); 0.795 with Silmitasertib + AZD7762 (first compound 4 µM); 0.455 in experiment [4] (first compound 0.04 µM); 0.277 in experiment [4] (first compound 1.265 µM); 0.401 in experiment [4] (first compound 4 µM).

As to NCI-H1993, the relative viability stood at 1.33 in experiment [1] (first compound 0.04 µM); 0.857 in experiment [1] (first compound 0.4 µM); 0.995 in experiment [1] (first compound 1.265 µM); 0.745 in experiment [1] (first compound 4 µM); 0.597 in experiment [2] (first compound 0.04 µM); 0.747 in experiment [2] (first compound 0.4 µM). Moreover, the relative viability amounted to 0.695 in experiment [2] (first compound 1.265 µM); 0.758 in experiment [2] (first compound 4 µM); 0.547 in experiment [3] (first compound 0.04 µM); 0.447 in experiment [3] (first compound 0.4 µM); 0.543 in experiment [3] (first compound 1.265 µM); 0.566 in experiment [3] (first compound 4 µM). Also, the relative viability stood at 0.925 in the experiment with Silmitasertib + AZD7762 (first compound 0.04 µM); 0.653 with Silmitasertib + AZD7762 (first compound 0.4 µM); 0.721 with Silmitasertib + AZD7762 (first compound 1.265 µM); 0.663 with Silmitasertib + AZD7762 (first compound 4 µM); 0.544 in experiment [4] (first compound 0.04 µM); 0.494 in experiment [4] (first compound 0.4 µM). Moreover, the relative viability in experiment [4] (first compound 1.265 µM) was found to be 0.552; in experiment [4] (first compound 4 µM), 0.514.

Consider NCI-H2085, for which the relative viability in experiment [1] (first compound 0.04 µM) was found to be 1.19; in experiment [1] (first compound 0.4 µM), 0.614; in experiment [1] (first compound 1.265 µM) it was 0.873; in experiment [1] (first compound 4 µM), 0.889; in experiment [2] (first compound 0.04 µM), 0.95; in experiment [2] (first compound 0.4 µM), 0.8. In addition, the relative viability was 0.828 in experiment [2] (first compound 1.265 µM); 0.806 in experiment [2] (first compound 4 µM); 0.761 in experiment [3] (first compound 0.04 µM); 0.675 in experiment [3] (first compound 1.265 µM); 0.597 in experiment [3] (first compound 4 µM); 0.974 with Silmitasertib + AZD7762 (first compound 0.04 µM). In addition, the relative viability is 0.702 with Silmitasertib + AZD7762 (first compound 0.4 µM); 0.86 with Silmitasertib + AZD7762 (first compound 1.265 µM); 0.858 in the experiment with Silmitasertib + AZD7762 (first compound 4 µM); 0.594 in experiment [4] (first compound 0.04 µM); 0.553 in experiment [4] (first compound 0.4 µM); 0.553 in experiment [4] (first compound 1.265 µM). The relative viability in experiment [4] (first compound 4 µM) came to 0.459.

For NCI-H2087, the relative viability in experiment [1] (first compound 0.04 µM) is 0.737; in experiment [1] (first compound 0.4 µM) it was 0.656; in experiment [1] (first compound 1.265 µM) it was 0.657; in experiment [1] (first compound 4 µM), 0.421; in experiment [2] (first compound 0.04 µM) it was 0.991; in experiment [2] (first compound 0.4 µM), 0.75. Moreover, the relative viability in experiment [2] (first compound 1.265 µM) is 0.608; in experiment [2] (first compound 4 µM), 0.408; in experiment [3] (first compound 0.04 µM), 0.515; in experiment [3] (first compound 1.265 µM), 0.431; in experiment [3] (first compound 4 µM), 0.223; with Silmitasertib + AZD7762 (first compound 0.04 µM), 1.34. The relative viability was 1.1 with Silmitasertib + AZD7762 (first compound 0.4 µM); 1.35 with Silmitasertib + AZD7762 (first compound 1.265 µM); 0.817 in the experiment with Silmitasertib + AZD7762 (first compound 4 µM); 0.414 in experiment [4] (first compound 0.04 µM); 0.286 in experiment [4] (first compound 0.4 µM); 0.181 in experiment [4] (first compound 1.265 µM). Moreover, the relative viability in experiment [4] (first compound 4 µM) was found to be 0.199.

On to NCI-H2126, for which the relative viability in experiment [1] (first compound 0.04 µM) turned out to be 1.08; in experiment [1] (first compound 0.4 µM), 0.98; in experiment [1] (first compound 1.265 µM), 1.08; in experiment [1] (first compound 4 µM), 1.05; in experiment [2] (first compound 0.04 µM) it was 0.722; in experiment [2] (first compound 0.4 µM), 0.737. In addition, the relative viability in experiment [2] (first compound 1.265 µM) amounted to 0.626; in experiment [2] (first compound 4 µM), 0.585; in experiment [3] (first compound 0.04 µM) it was 0.494; in experiment [3] (first compound 0.4 µM), 0.515; in experiment [3] (first compound 1.265 µM), 0.494; in experiment [3] (first compound 4 µM), 0.462. For the same cell line, the relative viability was found to be 1.05 with Silmitasertib + AZD7762 (first compound 0.04 µM); 0.836 with Silmitasertib + AZD7762 (first compound 0.4 µM); 1.09 with Silmitasertib + AZD7762 (first compound 1.265 µM); 0.934 with Silmitasertib + AZD7762 (first compound 4 µM); 0.585 in experiment [4] (first compound 0.04 µM); 0.631 in experiment [4] (first compound 0.4 µM). The relative viability was 0.497 in experiment [4] (first compound 1.265 µM) and 0.508 in experiment [4] (first compound 4 µM).

On to NCI-H2347, for which the relative viability was found to be 1.27 in experiment [1] (first compound 0.04 µM); 0.593 in experiment [1] (first compound 0.4 µM); 0.881 in experiment [1] (first compound 1.265 µM); 0.652 in experiment [1] (first compound 4 µM); 1.01 in experiment [2] (first compound 0.04 µM); 0.952 in experiment [2] (first compound 0.4 µM). The relative viability amounted to 0.967 in experiment [2] (first compound 1.265 µM); 0.848 in experiment [2] (first compound 4 µM); 1.22 in experiment [3] (first compound 0.04 µM); 0.452 in experiment [3] (first compound 1.265 µM); 0.301 in experiment [3] (first compound 4 µM); 0.656 in the experiment with Silmitasertib + AZD7762 (first compound 0.04 µM). The relative viability in the experiment with Silmitasertib + AZD7762 (first compound 0.4 µM) worked out at 0.663; with Silmitasertib + AZD7762 (first compound 1.265 µM) it was 0.531; in the experiment with Silmitasertib + AZD7762 (first compound 4 µM) it was 0.633; in experiment [4] (first compound 0.04 µM), 0.637; in experiment [4] (first compound 0.4 µM), 0.558; in experiment [4] (first compound 1.265 µM), 0.606. In experiment [4] (first compound 4 µM), the relative viability was 0.579.
